Where a name gives a salt, the structure may show the parent alone.
How the values were obtained:
[1] = tested on: indomethacin ulcer; test: Inhibitory activity on indomethacin ulcer; assay type: in vivo, SD-strain male rats; settings: 200 mg/kg oral, 30 min before indomethacin 20 mg/kg oral, rats
Protocol: Seven week-old SD-strain male rats (body weight 200 to 220 g) were fasted for 24 hours but water was provided freely, and then used in the following experiment.
Each of the test compounds suspended in 0.5% CMC was orally administered to the rats, and 30 minutes later, indomethacin was orally administered in a dose of 20 mg/kg. Six hours later, the animals were sacrificed. The abdomen was cut open, and the stomach was removed. 1% Evan's blue was injected in an amount of 0.5 ml/rat into the rats through the tail vein under ether anesthesia 10 minutes before sacrificing.
12 ml of a 1% formalin was injected into the stomach and the stomach was further dipped in 1% formalin for about 10 minutes for the fixation. The stomach was cut open on the side of the greater curvature, and spread on a glass plate. The lengths of ulcers generated in the glandular stomach were measured by using a solid microscope. The sum of the lengths of the ulcers for each animal was used as the ulcer index. The ulcer inhibiting ratio of the test compound was calculated in accordance with the following equation. [formula]
The control group was given 0.5% CMC and indomethacin alone.

[2] = tested on: serotonin ulcer; test: Inhibitory activity on serotonin ulcer; assay type: in vivo, SD-strain male rats; settings: 30 min before serotonin 20 mg/kg s.c., rats
Protocol: Seven week-old SD-strain male rats (body weight 200 to 220 g) were fasted for 24 hours but water was provided freely, and then used in the following experiment. Each of the test compounds suspended in 0.5% CMC was administered to the rats either orally or intraperitoneally, and 30 minutes later, serotonin (serotonin creatinine sulfate) was subcutaneously administered to the rats in a dose of 20 mg/kg. Four hours later, the animals were sacrificed. The abdomen was cut open, and the stomach was taken out from each animal. 12 ml of 1% formalin was injected into the stomach to inflate it, and the stomach was further dipped for about 10 minutes in 1% formalin for fixation. Then, the stomach was cut open on the side of the lesser curvature, and spread on a glass plate. The area of ulcers generated in the glandular stomach was measured by using a solid microscope. The sum of the area of ulcer for each animal was used as the ulcer index. The ulcer inhibiting ratio of the test compound was calculated in accordance with the following equation. [formula] The control group was given 0.5% CMC and serotonin alone.

[3] = tested on: gastric secretion; test: Inhibitory activity on gastric secretion (pylorus ligation); assay type: in vivo, male rats; settings: for Amount of gastric juice: 4 hours after pylorus ligation, control 6.8 ± 0.6, in ml (unit assumed); for Acidity: control 109.1 ± 1.7
Protocol: Seven week-old DS-strain male rats (body weight 200 to 220 g) were fasted for 24 hours but water was provided freely, and then used in the following experiment.
The rats were anesthetized with ether. The abdomen was cut open along the median line to expose the pylorus. Then, the pylorus was ligated. After ligation, each of the test compounds dissolved in physiological saline was intraperitoneally administered to the animals. The abdomen was sutured, and after confirming that the animals recovered from ether anesthesia, they were kept in a wire cage while being deprived of food and water. Four hours later, the animals were killed by using ether. The abdomen was again cut open, and the stomach was removed. The gastric juice was collected, and its volume and acidity was measured. The acidity of the gastric juice was determined by titrating with 0.05 N sodium hydroxide using phenolphthalein as an indicator, and calculating the amount of sodium hydroxide required to neutralize the gastric juice which is estimated as the acidity of the gastric juice.
(§1) The control group was given physiological saline alone.
For the method of studying the inhibitory activity on the gastiic secretion, reference may be made to H. Shay, S. A. Komoroe, S. S. Fels, M. Meraze, M. Gruestein and H. Siplet: Gastroent., 5, 43 (1945), and M. L. Anson: J. Gen, Physiol., 21, 79 (1938).

[4] = tested on: blood flow in the gastric mucosa; test: Increasing activity on the blood flow in the dog gastric mucosa; assay type: in vivo, Male Beagle dogs; settings: anesthetized dogs, cross thermocouple method
Protocol: Male Beagle dogs (10 to 15 kg) were anesthetized by intravenously administering sodium pentobarbital in a dose of 35 mg/kg, and used in the following experiment.
The blood flow in the gastric mucosa was measured by a cross thermocouple method. The abdomen was cut open along the median line to expose the stomach. A wire-type cross thermocouple element was inserted behind the mucosa on the glandular stomach. The blood flow measured by the cross thermocouple element was recorded continuously in a recorder. For the method of measuring the blood flow, reference may be made to a Japanese-language publication "Blood Flow Measurement", page 105, 1974 Igakushoin, edited by Okinaka, Hori and Honda.

[5] = tested on: Shay ulcer; test: Inhibitory activity on Shay ulcer (pylorus ligation); assay type: in vivo, SD-strain male rats; settings: 300 mg/kg i.p.
Protocol: Seven week-old SD-strain male rats (body weight 200 to 220 g) were fasted for 24 hours but water was provided freely, and then used in the experiment.
The rats were anesthetized with ether. The abdomen was cut open along the median line to expose the pylorus. Then, the pylorus was ligated. After the ligation, each of the test compounds, dissolved in physiological saline, was administered intraperitoneally to the rats. The abdomen was sutured. After confirming that the animals recovered from ether anesthesia, they were kept in a wire cage while being deprived of food and water. Seventeen hours later, the animals were killed by using ether. The abdomen was again cut open, and the stomach was removed. The stomach was cut open, and the area of ulcers generated in the fundus was measured by using a solid microscope, and scored as tabulated below to obtain ulcer indices. […]
as §1
For the measurement of the Shay ulcer inhibiting activity, reference may be made to H. Shay, S. A. Komoroe, S. S. Fels, M. Meraze, M. Gruestein, and H. Siplet: Gastroent., 5, 43 (1945).

[6] = target: T1, plasmin (Homo sapiens, UniProt P00747); test: Antiplasmin activity (clot lysis time, fibrinogen/urokinase/thrombin); assay type: biochemical; settings: first series, control 391.7 ± 16.1
T1 construct: fibrin clot lysis, native
Protocol: Human fibrinogen was dissolved in a phosphate-buffered physiological saline (PBS) at a pH of 7.4 to prepare a 0.2% solution. Urokinase and thrombin were dissolved similarly in PBS to prepare a solution containing 120 units of urokinase and 50 units of thrombin per ml. […] Then, 0.1 ml of the urokinase-thrombin mixed solution was added, and a microchronometer was started. One minute after the starting of the microchronometer, a glass ball having a diameter of 8 mm was put on the coagulated surface, and the incubation was continued. The time which elapsed from the dissolution of the coagulated mass until the glass ball dropped onto the bottom of the test tube was measured. As a control, PBS alone was added.

T1 sequence (P00747 97-810): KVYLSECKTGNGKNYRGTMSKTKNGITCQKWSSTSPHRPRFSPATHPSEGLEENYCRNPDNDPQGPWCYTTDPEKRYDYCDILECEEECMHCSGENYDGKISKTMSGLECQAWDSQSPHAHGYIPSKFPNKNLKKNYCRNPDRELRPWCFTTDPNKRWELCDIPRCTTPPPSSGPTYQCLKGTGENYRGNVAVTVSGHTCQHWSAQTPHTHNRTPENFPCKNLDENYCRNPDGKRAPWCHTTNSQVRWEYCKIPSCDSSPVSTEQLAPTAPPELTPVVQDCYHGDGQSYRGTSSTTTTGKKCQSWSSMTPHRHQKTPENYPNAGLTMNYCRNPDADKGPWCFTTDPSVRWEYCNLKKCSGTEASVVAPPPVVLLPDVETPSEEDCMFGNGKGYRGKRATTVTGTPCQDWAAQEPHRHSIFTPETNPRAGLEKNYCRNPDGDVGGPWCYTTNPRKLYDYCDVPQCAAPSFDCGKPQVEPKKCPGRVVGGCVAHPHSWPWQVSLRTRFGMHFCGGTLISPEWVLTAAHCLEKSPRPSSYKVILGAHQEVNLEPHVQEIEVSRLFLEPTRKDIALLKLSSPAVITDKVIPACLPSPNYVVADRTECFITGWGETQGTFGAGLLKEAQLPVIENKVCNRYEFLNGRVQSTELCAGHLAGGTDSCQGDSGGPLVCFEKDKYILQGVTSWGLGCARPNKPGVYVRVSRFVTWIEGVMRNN

Clot lysis time ([6]; 10^-3 M): 980.0 s
Clot lysis time ([6]; 10^-4 M): 561.2 s
Clot lysis time ([6]; 10^-5 M): 413.9 s
SMILES: NC[C@H]1CC[C@H](C(=O)c2ccc(CCC(=O)O)cc2)CC1 [3-[p-trans-4-aminomethylcyclohexylcarbonyl)phenyl]-propionic acid hydrochloride]
Ulcer inhibiting ratio [1]: 62.2%
Ulcer inhibiting ratio ([2]; 30 mg/kg oral): 34.0%
Ulcer inhibiting ratio ([2]; 100 mg/kg oral): 76.7%
Inhibition ratio (acidity) ([3]; 50 mg/kg i.p.): 17.5%
Inhibition ratio (amount of gastric juice) ([3]; 50 mg/kg i.p.): 41.7%
Amount of gastric juice ([3]; 50 mg/kg i.p.): 4.8 ± 0.8
Acidity ([3]; 50 mg/kg i.p.): 90.0 ± 4.5 μeq./ml
Inhibition ratio (acidity) ([3]; 100 mg/kg i.p.): 31.8%
Inhibition ratio (amount of gastric juice) ([3]; 100 mg/kg i.p.): 54.4%
Amount of gastric juice ([3]; 100 mg/kg i.p.): 3.1 ± 0.7
Acidity ([3]; 100 mg/kg i.p.): 74.1 ± 6.1 μeq./ml
Inhibition ratio (acidity) ([3]; 200 mg/kg i.p.): 70.1%
Inhibition ratio (amount of gastric juice) ([3]; 200 mg/kg i.p.): 89.4%
Amount of gastric juice ([3]; 200 mg/kg i.p.): 0.7 ± 0.1
Acidity ([3]; 200 mg/kg i.p.): 32.6 ± 2.6 μeq./ml
Increase in the gastric mucosal blood flow ([4]; 2 mg/kg i.v.): weak increase
Increase in the gastric mucosal blood flow ([4]; 5 mg/kg i.v.): remarkable
Inhibition ratio ([5]; Shay ulcer, rats): 43.5%
Ratio of perforation ([5]; Shay ulcer, rats, control 80): 20%
Ulcer index ([5]; score 0-5 by ulcer area, 17 hours after pylorus ligation, control 4.6 ± 0.4): 2.6 ± 0.8
